Experimental data reported in BindingDB's records for doi:10.1016/j.bmcl.2004.04.096 (Cv Therapeutics, 2004).

Columns and labels:
[1] = target: T1, Adenosine receptor A1 (Cavia porcellus, UniProt P47745); assay: Binding affinity against adenosine A1 receptor using [3H]CPX in guinea pig DDT membrane; 117+/-46
T1 sequence (P47745 whole entry): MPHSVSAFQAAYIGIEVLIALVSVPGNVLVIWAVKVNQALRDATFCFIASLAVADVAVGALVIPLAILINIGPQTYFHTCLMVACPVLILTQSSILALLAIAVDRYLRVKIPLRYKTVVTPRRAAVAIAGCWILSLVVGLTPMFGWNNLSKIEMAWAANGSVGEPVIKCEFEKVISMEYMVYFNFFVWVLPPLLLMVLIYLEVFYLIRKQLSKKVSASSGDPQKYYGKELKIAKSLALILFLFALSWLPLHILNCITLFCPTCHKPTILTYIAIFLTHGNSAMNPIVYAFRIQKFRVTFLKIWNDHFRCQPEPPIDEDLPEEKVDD

[2] = target: T1, Adenosine receptor A1; assay: Binding affinity against adenosine A1 receptor using [3H]CPX in guinea pig DDT membrane; 7292+/-3241
[3] = target: T1, Adenosine receptor A1; assay: Binding affinity against adenosine A1 receptor using [3H]CPX in guinea pig DDT membrane; 1945+/-1316
[4] = target: T1, Adenosine receptor A1; assay: Binding affinity against adenosine A1 receptor using [3H]CPX in guinea pig DDT membrane; 604+/-241
[5] = target: T1, Adenosine receptor A1; assay: Binding affinity against adenosine A1 receptor using [3H]CPX in guinea pig DDT membrane; 5497+/-180
[6] = target: T1, Adenosine receptor A1; assay: Binding affinity against adenosine A1 receptor using [3H]CPX in guinea pig DDT membrane
[7] = target: T1, Adenosine receptor A1; assay: Binding affinity against adenosine A1 receptor using [3H]CPX in guinea pig DDT membrane; 343+/-137
[8] = target: T1, Adenosine receptor A1; assay: Binding affinity against adenosine A1 receptor using [3H]CPX in guinea pig DDT membrane; 1666+/-556
[9] = target: T1, Adenosine receptor A1; assay: Binding affinity against adenosine A1 receptor using [3H]CPX in guinea pig DDT membrane; 503+/-262
[10] = target: T1, Adenosine receptor A1; assay: Binding affinity against adenosine A1 receptor using [3H]CPX in guinea pig DDT membrane; 1773+/-209
[11] = target: T1, Adenosine receptor A1; assay: Binding affinity against adenosine A1 receptor using [3H]CPX in guinea pig DDT membrane; 338+/-98
[12] = target: T1, Adenosine receptor A1; assay: Binding affinity against adenosine A1 receptor using [3H]CPX in guinea pig DDT membrane; 614+/-78
[13] = target: T1, Adenosine receptor A1; assay: Binding affinity against adenosine A1 receptor using [3H]CPX in guinea pig DDT membrane; 1571+/-245
[14] = target: T1, Adenosine receptor A1; assay: Binding affinity against adenosine A1 receptor using [3H]CPX in guinea pig DDT membrane; 400+/-38
[15] = target: T1, Adenosine receptor A1; assay: Binding affinity against adenosine A1 receptor using [3H]CPX in guinea pig DDT membrane; 5855+/-1208
[16] = target: T1, Adenosine receptor A1; assay: Binding affinity against adenosine A1 receptor using [3H]CPX in guinea pig DDT membrane; 166+/-75
[17] = target: T1, Adenosine receptor A1; assay: Binding affinity against adenosine A1 receptor using [3H]-CPX in guinea pig DDT membrane; 4191+/-922
[18] = target: T1, Adenosine receptor A1; assay: Binding affinity against adenosine A1 receptor using [3H]CPX in guinea pig DDT membrane; 287+/-125
[19] = target: T1, Adenosine receptor A1; assay: Binding affinity against adenosine A1 receptor using [3H]CPX in guinea pig DDT membrane; 913+/-517
[20] = target: T1, Adenosine receptor A1; assay: Binding affinity against adenosine A1 receptor using [3H]CPX in guinea pig DDT membrane; 6250+/-1767
[21] = target: T1, Adenosine receptor A1; assay: Binding affinity against adenosine A1 receptor using [3H]CPX in guinea pig DDT membrane; 894+/-659
[22] = target: T1, Adenosine receptor A1; assay: Binding affinity against adenosine A1 receptor using [3H]CPX in guinea pig DDT membrane; 1143+/-426
[23] = target: T1, Adenosine receptor A1; assay: Binding affinity against adenosine A1 receptor using [3H]CPX in guinea pig DDT membrane; 354+/-113
[24] = target: T1, Adenosine receptor A1; assay: Binding affinity against adenosine A1 receptor using [3H]CPX in guinea pig DDT membrane; 473+/-329
[25] = target: T1, Adenosine receptor A1; assay: Binding affinity against adenosine A1 receptor using [3H]CPX in guinea pig DDT membrane; 158+/-21
[26] = target: T1, Adenosine receptor A1; assay: Binding affinity against adenosine A1 receptor using [3H]CPX in guinea pig DDT membrane; 506+/-111

## O[C@@H]1[C@@H](COc2ccccc2F)OC(n2cnc3c(NC4CCOC4)ncnc32)[C@@H]1O (stereo partly specified)
[1]
  Ki: 117 nM

## Cc1cccc(Cl)c1SC[C@H]1OC(n2cnc3c(NC4CCOC4)ncnc32)[C@H](O)[C@@H]1O (stereo partly specified)
[2]
  Ki: 7290 nM

## O[C@@H]1[C@@H](CSc2nc3ccc(Cl)cc3o2)OC(n2cnc3c(NC4CCOC4)ncnc32)[C@@H]1O (stereo partly specified)
[3]
  Ki: 1940 nM

## O[C@@H]1[C@@H](COc2cccc(F)c2)OC(n2cnc3c(NC4CCOC4)ncnc32)[C@@H]1O (stereo partly specified)
[4]
  Ki: 604 nM

## O[C@@H]1[C@H](O)[C@@H](CSc2ccc(F)cc2F)O[C@H]1n1cnc2c(NC3CCOC3)ncnc21 (stereo partly specified)
[5]
  Ki: 5500 nM
[6]
  Ki: 494 nM

## O[C@@H]1[C@@H](COc2ccc(F)cc2)OC(n2cnc3c(NC4CCOC4)ncnc32)[C@@H]1O (stereo partly specified)
[7]
  Ki: 343 nM

## COc1ccc2nc(SC[C@H]3OC(n4cnc5c(NC6CCCC6)ncnc54)[C@H](O)[C@@H]3O)sc2c1 (stereo partly specified)
[8]
  Ki: 1670 nM

## Cc1ccccc1OC[C@H]1OC(n2cnc3c(NC4CCOC4)ncnc32)[C@H](O)[C@@H]1O (stereo partly specified)
[9]
  Ki: 503 nM

## Cc1cc(COC[C@H]2OC(n3cnc4c(NC5CCOC5)ncnc43)[C@H](O)[C@@H]2O)no1 (stereo partly specified)
[6]
  Ki: 192 nM

## O[C@@H]1[C@@H](CSc2nc3ccccc3s2)OC(n2cnc3c(NC4CCCC4)ncnc32)[C@@H]1O (stereo partly specified)
[10]
  Ki: 1770 nM

## Cc1csc(SC[C@H]2OC(n3cnc4c(NC5CCOC5)ncnc43)[C@H](O)[C@@H]2O)n1 (stereo partly specified)
[6]
  Ki: > 5000 nM

## O[C@@H]1[C@@H](CSc2ccccc2Cl)OC(n2cnc3c(NC4CCOC4)ncnc32)[C@@H]1O (stereo partly specified)
[11]
  Ki: 338 nM

## O[C@@H]1[C@@H](CSc2c(Cl)cccc2Cl)OC(n2cnc3c(NC4CCOC4)ncnc32)[C@@H]1O (stereo partly specified)
[12]
  Ki: 614 nM

## O[C@@H]1[C@@H](CSc2cccc(F)c2)OC(n2cnc3c(NC4CCOC4)ncnc32)[C@@H]1O (stereo partly specified)
[13]
  Ki: 1570 nM

## O[C@@H]1[C@@H](COCc2ccccc2)OC(n2cnc3c(NC4CCOC4)ncnc32)[C@@H]1O (stereo partly specified)
[6]
  Ki: 165 nM

## O[C@@H]1[C@@H](COc2ccccc2F)OC(n2cnc3c(NC4CCCC4)ncnc32)[C@@H]1O (stereo partly specified)
[6]
  Ki: 4390 nM

## O[C@@H]1[C@@H](CSc2nc3ccccc3s2)OC(n2cnc3c(NC4CCOC4)ncnc32)[C@@H]1O (stereo partly specified)
[14]
  Ki: 400 nM

## Cc1cccc(C)c1SC[C@H]1OC(n2cnc3c(NC4CCOC4)ncnc32)[C@H](O)[C@@H]1O (stereo partly specified)
[15]
  Ki: 5850 nM

## O[C@@H]1[C@@H](CSc2nccs2)OC(n2cnc3c(NC4CCCC4)ncnc32)[C@@H]1O (stereo partly specified)
[16]
  Ki: 166 nM

## Cn1ccnc1SC[C@H]1OC(n2cnc3c(NC4CCOC4)ncnc32)[C@H](O)[C@@H]1O (stereo partly specified)
[17]
  Ki: 4190 nM

## O[C@@H]1[C@@H](CSc2ccccc2F)OC(n2cnc3c(NC4CCCC4)ncnc32)[C@@H]1O (stereo partly specified)
[18]
  Ki: 287 nM

## O[C@@H]1[C@@H](CSc2ncccn2)OC(n2cnc3c(NC4CCOC4)ncnc32)[C@@H]1O (stereo partly specified)
[19]
  Ki: 913 nM

## O[C@@H]1[C@@H](CSc2ccccc2C(F)(F)F)OC(n2cnc3c(NC4CCOC4)ncnc32)[C@@H]1O (stereo partly specified)
[20]
  Ki: 6250 nM

## O[C@@H]1[C@@H](CSc2ccccn2)OC(n2cnc3c(NC4CCOC4)ncnc32)[C@@H]1O (stereo partly specified)
[21]
  Ki: 894 nM

## Cc1ccccc1SC[C@H]1OC(n2cnc3c(NC4CCOC4)ncnc32)[C@H](O)[C@@H]1O (stereo partly specified)
[22]
  Ki: 1140 nM

## COc1ccc2sc(SC[C@H]3OC(n4cnc5c(NC6CCCC6)ncnc54)[C@H](O)[C@@H]3O)nc2c1 (stereo partly specified)
[23]
  Ki: 354 nM

## Cn1ccnc1SC[C@H]1OC(n2cnc3c(NC4CCCC4)ncnc32)[C@H](O)[C@@H]1O (stereo partly specified)
[6]
  Ki: 1340 nM

## O[C@@H]1[C@@H](COc2ccccc2Cl)OC(n2cnc3c(NC4CCOC4)ncnc32)[C@@H]1O (stereo partly specified)
[24]
  Ki: 473 nM

## O[C@@H]1[C@@H](CSc2nccs2)OC(n2cnc3c(NC4CCOC4)ncnc32)[C@@H]1O (stereo partly specified)
[25]
  Ki: 158 nM

## O[C@@H]1[C@H](O)[C@@H](CSc2ccccc2F)O[C@H]1n1cnc2c(NC3CCOC3)ncnc21 (stereo partly drawn) [N6-Tetrahydrofuranyl-9H-[5-deoxy-5-(2-fluorophenylthio)-beta-D-ribofuranosyl]adenine]
[26]
  Ki: 506 nM
